Among the data in ChEMBL document CHEMBL1201862, “PubChem BioAssay data set” (2004) are IC50, EC50 and AC50 values, retold here.

Assay [1] deals with DNA dC->dU-editing enzyme APOBEC-3A (Homo sapiens, UniProt P31941). As to the kind of experiment: Dose Response confirmation of small molecule APOBEC3A DNA Deaminase Inhibitors via a fluorescence-based single-stranded DNA deaminase assay. [Related pubchem assays (depositor defined):AID493011, AID493024]. In kind it is functional.
In assay [2] the target is DNA dC->dU-editing enzyme APOBEC-3G (Homo sapiens, UniProt Q9HC16). In kind it is functional.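 Also: Dose-response counterscreen measuring inhibition of APOBEC3G DNA deaminase activity, run while confirming APOBEC3A inhibitors.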
The target of a further assay is T1, Bcl-2-related protein A1 (Mus musculus, UniProt Q07440).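 Also: confirmatory dose–response counterscreen on Bfl-1, used to check hits from a UBC13 polyubiquitin inhibitor campaign.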
T1 sequence (Q07440 whole entry): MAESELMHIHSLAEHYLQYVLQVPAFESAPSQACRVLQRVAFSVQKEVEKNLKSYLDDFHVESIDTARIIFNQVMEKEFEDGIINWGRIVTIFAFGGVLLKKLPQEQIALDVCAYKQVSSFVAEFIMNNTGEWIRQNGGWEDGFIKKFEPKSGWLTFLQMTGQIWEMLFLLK
It counts as functional.

For assay [3], the target named is T2, Ubiquitin-conjugating enzyme E2 N (Homo sapiens, UniProt P61088).
T2 sequence (P61088 whole entry): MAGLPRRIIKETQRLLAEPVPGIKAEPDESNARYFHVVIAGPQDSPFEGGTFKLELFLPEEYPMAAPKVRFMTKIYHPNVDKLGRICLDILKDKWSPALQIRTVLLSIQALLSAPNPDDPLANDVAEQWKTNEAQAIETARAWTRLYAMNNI
In kind it is functional.

Assay [4] has as its target T2, Ubiquitin-conjugating enzyme E2 N. In kind it is functional. This is another data set of the same source.
Assay [5] has as its target Glyceraldehyde-3-phosphate dehydrogenase (Homo sapiens, UniProt P04406).
Assay [6] has as its target T3, Alkaline phosphatase, tissue-nonspecific isozyme (Homo sapiens, UniProt P05186).
T3 sequence (P05186 whole entry): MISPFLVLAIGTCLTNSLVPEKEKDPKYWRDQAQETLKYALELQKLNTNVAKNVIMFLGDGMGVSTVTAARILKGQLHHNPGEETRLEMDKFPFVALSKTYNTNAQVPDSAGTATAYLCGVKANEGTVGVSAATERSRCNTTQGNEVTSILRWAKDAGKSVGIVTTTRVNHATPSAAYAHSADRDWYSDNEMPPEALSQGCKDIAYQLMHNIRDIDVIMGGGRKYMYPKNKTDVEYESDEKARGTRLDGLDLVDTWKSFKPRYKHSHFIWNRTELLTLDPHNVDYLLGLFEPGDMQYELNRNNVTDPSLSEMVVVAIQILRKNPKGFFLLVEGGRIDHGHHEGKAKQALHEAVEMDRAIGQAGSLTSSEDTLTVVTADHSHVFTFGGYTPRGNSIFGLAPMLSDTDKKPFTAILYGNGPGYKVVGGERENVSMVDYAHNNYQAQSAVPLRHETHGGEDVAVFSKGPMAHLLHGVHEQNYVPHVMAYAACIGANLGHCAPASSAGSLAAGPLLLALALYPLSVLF
Briefly: potency against alkaline phosphatase TNAP – biochemical, luminescent, dose response, SAR follow-up (AID 1056).

A further assay has as its target Troponin, cardiac muscle (Homo sapiens, UniProt P19429+P45379+P63316). Briefly: Fluorescence-based biochemical high throughput dose response assay for activators of the calcium sensitivity of cardiac Regulated Thin Filaments (RTF). [Related pubchem assays (depositor defined):AID493008, AID493018, AID504382, AID504383]. In kind it is protein-complex assay.
In assay [7] the target is Alkaline phosphatase, placental type (Homo sapiens, UniProt P05187). Briefly: human placental alkaline phosphatase inhibition – biochemical, luminescence, confirmation (AID 1512). In kind it is functional.
Assay [8] deals with T4, RNA-binding protein pos-1 (Caenorhabditis elegans, UniProt G5EF15).
T4 sequence (G5EF15 whole entry): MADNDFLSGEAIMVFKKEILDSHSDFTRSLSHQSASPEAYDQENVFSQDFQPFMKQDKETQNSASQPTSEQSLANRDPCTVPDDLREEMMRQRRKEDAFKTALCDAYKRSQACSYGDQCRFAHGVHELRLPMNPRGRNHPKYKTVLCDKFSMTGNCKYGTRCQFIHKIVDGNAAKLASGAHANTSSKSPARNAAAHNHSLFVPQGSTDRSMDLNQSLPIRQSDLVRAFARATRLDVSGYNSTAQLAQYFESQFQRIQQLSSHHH
Briefly: disruptors of C. elegans POS-1 RNA interaction – biochemical, fluorescence polarization, dose response (AID 1964).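 Also: purified POS-1 fused to maltose binding protein made in E. coli; potency of compounds blocking POS-1 binding to fluorescent RNA.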

In assay [9] the target is T5, Zinc finger protein mex-5 (Caenorhabditis elegans, UniProt Q9XUB2).
T5 sequence (Q9XUB2 whole entry): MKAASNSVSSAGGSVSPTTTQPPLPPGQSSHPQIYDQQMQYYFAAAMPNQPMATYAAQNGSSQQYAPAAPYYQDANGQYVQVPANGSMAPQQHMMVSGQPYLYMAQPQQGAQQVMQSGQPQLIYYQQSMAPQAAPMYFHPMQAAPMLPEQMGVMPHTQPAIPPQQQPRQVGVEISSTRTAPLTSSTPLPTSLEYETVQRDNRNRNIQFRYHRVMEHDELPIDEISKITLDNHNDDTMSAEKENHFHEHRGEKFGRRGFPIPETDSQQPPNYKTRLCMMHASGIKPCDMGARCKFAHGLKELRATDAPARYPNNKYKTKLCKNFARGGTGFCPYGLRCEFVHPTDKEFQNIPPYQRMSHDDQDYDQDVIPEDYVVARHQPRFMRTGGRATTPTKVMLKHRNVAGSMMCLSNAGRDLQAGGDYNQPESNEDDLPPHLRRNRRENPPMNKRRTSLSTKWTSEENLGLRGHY
Briefly: potency of MEX-5 RNA-binding blockers – biochemical, C. elegans, fluorescence polarization, dose response (AID 1960). (Fluorescence polarisation rises when a labelled molecule tumbles more slowly, as on binding a larger partner.)

The target in a further assay is Cytochrome P450 2C19 (Homo sapiens, UniProt P33261). As to the kind of experiment: Cytochrome panel assay with activity outcomes. Panel member name: p450-cyp2c19 Compounds with AC50 equal or less than 10 uM are considered active. It counts as functional. Conditions: read-out: AC50.
For assay [10], the target named is T6, Corticotropin-releasing factor receptor 2/Corticotropin-releasing factor-binding protein (Homo sapiens, UniProt P24387+Q13324).
T6 sequence (Q13324 whole entry): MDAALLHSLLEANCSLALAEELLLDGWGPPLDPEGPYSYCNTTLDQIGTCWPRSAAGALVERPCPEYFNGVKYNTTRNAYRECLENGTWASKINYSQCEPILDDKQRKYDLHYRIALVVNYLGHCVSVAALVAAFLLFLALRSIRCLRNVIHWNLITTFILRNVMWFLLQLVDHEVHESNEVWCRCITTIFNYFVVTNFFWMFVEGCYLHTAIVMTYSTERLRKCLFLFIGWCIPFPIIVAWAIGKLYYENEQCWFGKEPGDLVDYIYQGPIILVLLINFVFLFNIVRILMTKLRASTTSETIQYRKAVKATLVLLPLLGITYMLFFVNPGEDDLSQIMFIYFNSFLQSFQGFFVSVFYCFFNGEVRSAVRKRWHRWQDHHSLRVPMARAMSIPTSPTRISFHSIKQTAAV
T6 sequence (P24387 whole entry): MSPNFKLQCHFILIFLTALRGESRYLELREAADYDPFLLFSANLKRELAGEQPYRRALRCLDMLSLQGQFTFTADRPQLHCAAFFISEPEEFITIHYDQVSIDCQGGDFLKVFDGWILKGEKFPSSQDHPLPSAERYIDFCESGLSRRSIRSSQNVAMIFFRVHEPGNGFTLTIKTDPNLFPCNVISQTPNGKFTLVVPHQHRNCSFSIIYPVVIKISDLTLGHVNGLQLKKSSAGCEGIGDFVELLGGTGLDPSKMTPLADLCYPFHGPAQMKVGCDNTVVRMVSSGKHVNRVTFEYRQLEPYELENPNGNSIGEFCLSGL
As to the kind of experiment: activators of CRF receptor 2 with binding protein – uHTS hits, confirmation (AID 602473). As to conditions: read-out: EC50_Mean. In kind it is functional.

A further assay concerns the target T7, Cytochrome P450 1A2 (Homo sapiens, UniProt P05177).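 Also: PubChem cytochrome P450 panel assay, CYP1A2 panel member.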
T7 sequence (P05177 whole entry): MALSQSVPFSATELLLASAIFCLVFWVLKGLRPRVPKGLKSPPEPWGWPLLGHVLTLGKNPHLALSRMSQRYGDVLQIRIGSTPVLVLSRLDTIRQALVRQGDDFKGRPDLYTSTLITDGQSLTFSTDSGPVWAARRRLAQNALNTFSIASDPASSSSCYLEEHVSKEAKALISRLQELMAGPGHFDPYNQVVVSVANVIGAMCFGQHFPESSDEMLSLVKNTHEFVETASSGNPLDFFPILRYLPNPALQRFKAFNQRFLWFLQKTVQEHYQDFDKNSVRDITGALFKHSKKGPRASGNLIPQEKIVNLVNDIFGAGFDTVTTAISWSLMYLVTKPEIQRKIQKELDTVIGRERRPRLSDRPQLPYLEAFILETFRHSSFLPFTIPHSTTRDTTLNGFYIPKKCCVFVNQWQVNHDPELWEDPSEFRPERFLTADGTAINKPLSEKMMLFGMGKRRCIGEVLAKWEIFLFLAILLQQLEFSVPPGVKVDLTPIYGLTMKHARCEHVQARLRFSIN

A further assay has as its target Cytochrome P450 2C9 (Homo sapiens, UniProt P11712).
Assay [11] has as its target T8, Carboxy-terminal domain RNA polymerase II polypeptide A small phosphatase 1 (Homo sapiens, UniProt Q9GZU7).
T8 sequence (Q9GZU7 whole entry): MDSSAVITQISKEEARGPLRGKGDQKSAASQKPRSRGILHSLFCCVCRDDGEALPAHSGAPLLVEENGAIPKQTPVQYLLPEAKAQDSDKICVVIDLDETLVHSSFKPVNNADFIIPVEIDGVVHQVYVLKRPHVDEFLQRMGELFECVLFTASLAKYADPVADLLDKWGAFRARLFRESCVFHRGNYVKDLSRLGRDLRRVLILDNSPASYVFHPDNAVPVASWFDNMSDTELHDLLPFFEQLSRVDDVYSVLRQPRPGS
As to the kind of experiment: CTDSP1 inhibitors, concentration-response, biochemical, absorbance readout, ultra-high-throughput screen actives (AID 540297). It counts as functional.

Another assay deals with T9, Caspase-6 (Homo sapiens, UniProt P55212).
T9 sequence (P55212 whole entry): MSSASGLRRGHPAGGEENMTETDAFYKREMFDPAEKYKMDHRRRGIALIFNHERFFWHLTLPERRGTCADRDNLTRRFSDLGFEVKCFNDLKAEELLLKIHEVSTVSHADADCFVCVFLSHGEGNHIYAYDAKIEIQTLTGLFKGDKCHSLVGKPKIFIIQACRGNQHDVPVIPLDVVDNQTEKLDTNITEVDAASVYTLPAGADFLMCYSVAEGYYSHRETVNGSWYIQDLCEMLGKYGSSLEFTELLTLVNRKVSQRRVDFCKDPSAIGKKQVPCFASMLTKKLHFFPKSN
Briefly: inhibition of CASP6 peptide cleavage – biochemical, VEID-R110 fluorescence, cherry-pick, dose response (AID 720632).

Calls of active or inactive are those of the source. A value given as a limit tells only on which side of the number the result lay.

Sequence of DNA dC->dU-editing enzyme APOBEC-3A (P31941 whole entry): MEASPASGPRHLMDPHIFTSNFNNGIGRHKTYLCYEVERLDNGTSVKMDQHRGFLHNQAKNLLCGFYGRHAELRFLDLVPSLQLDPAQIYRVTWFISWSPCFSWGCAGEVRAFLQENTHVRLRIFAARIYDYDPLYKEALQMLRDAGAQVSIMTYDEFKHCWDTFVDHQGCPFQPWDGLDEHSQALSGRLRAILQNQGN
Sequence of Glyceraldehyde-3-phosphate dehydrogenase (P04406 whole entry): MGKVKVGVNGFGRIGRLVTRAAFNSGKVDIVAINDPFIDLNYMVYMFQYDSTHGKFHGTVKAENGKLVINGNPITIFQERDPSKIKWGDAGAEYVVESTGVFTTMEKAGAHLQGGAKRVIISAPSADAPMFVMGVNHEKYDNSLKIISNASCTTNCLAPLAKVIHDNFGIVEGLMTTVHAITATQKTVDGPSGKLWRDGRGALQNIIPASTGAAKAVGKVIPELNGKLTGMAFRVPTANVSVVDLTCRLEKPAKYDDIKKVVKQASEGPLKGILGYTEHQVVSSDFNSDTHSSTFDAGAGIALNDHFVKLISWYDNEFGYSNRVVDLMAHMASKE
Sequence of Alkaline phosphatase, placental type (P05187 whole entry): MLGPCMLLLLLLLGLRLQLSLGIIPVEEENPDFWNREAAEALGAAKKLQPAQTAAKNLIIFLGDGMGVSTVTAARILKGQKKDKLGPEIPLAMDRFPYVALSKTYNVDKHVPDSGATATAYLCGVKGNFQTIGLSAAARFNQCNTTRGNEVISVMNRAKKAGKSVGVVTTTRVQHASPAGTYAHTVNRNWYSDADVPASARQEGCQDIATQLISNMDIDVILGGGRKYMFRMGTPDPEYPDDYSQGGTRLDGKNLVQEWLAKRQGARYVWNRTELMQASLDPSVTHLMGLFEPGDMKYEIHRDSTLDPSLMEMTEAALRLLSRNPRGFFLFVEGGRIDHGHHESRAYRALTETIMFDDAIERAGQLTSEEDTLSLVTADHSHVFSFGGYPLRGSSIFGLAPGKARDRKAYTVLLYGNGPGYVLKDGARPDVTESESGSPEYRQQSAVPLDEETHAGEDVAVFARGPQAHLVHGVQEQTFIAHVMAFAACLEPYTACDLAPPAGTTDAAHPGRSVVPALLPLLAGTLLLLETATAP
Sequence of DNA dC->dU-editing enzyme APOBEC-3G (Q9HC16 whole entry): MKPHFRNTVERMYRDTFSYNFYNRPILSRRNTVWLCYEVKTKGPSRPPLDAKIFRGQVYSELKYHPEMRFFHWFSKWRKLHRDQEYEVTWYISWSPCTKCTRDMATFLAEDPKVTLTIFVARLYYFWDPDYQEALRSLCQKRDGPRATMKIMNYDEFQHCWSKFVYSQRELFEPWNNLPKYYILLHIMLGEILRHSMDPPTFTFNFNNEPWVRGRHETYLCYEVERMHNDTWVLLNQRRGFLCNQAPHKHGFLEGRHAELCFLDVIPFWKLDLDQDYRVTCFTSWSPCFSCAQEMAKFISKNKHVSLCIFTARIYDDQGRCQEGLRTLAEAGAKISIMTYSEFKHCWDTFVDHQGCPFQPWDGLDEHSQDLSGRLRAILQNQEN
Sequence of Cytochrome P450 2C9 (P11712 whole entry, the tested form may be a part): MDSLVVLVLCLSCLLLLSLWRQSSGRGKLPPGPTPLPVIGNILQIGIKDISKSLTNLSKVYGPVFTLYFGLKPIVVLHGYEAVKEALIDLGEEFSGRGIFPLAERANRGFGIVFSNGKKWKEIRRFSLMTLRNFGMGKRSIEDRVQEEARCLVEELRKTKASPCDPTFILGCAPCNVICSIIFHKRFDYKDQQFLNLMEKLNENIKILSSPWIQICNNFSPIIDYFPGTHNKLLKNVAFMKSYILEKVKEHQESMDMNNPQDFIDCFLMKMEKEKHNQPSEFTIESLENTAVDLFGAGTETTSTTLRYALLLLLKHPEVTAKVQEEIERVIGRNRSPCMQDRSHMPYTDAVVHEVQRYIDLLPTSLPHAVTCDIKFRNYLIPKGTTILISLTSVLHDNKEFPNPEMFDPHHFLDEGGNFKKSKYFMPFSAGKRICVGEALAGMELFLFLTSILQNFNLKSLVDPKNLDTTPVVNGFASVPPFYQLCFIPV
Sequence of Cytochrome P450 2C19 (P33261 whole entry): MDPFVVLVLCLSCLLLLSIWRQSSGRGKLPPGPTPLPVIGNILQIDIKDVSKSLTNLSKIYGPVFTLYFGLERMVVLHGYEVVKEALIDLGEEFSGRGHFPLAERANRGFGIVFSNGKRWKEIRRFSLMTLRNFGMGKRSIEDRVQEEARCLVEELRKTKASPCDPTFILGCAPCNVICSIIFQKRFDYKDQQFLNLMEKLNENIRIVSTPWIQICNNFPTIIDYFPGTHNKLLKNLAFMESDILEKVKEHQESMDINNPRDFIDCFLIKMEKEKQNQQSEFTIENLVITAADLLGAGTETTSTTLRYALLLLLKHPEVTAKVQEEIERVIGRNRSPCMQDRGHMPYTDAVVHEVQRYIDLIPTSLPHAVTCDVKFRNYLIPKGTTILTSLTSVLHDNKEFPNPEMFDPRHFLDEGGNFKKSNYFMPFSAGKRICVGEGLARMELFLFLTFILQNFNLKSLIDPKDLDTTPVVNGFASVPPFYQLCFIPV

Turning to `COC(=O)C1=C(C)N(CC2CC2)C(=NCCN2CCOCC2)N[C@H]1c1ccccc1`, the results for the IC50 in [1] and in assay [2] were 5.16 µM (active) and 4.91 µM (active), respectively.

On to `Cc1c2ccccc2cc(Cc2ccccc2)[n+]1C`, for which the results for the IC50 in assay [1] and in [2] were 3.64 µM (active) and 2.98 µM (active), respectively.

On to `CCN(Cc1ccccc1)S(=O)(=O)c1ccc(C(=O)N(CCCN(C)C)c2nc3cc4c(cc3s2)OCCO4)cc1`, for which the IC50 at Bcl-2-related protein A1 is > 20 µM (inactive); in assay [3], 2.81 µM (active); in assay [4], 2.93 µM (active).

`O=C1c2ccccc2C(=O)N1c1nncs1`: the IC50 in assay [5] is > 100 µM (not active); in [6], > 100 µM (inactive).

As for `CC1(C)Cc2c(sc(NC(=O)C(=O)NCCCN3CCOCC3)c2C(N)=O)CO1`, the IC50 is > 20 µM (inactive) on Bcl-2-related protein A1, 7.92 µM (active) in assay [3] and 2.14 µM (active) in assay [4].

Regarding `O=C(/C=C/c1cn(CC(O)CN2CCCCC2)c2ccccc12)c1cccs1` (stereo not drawn), the EC50 at Troponin, cardiac muscle is 17.9 µM (inactive).

Take `Cc1ccc(C)c(NC(=S)NC(NC(=O)Cc2cccc3ccccc23)C(Cl)(Cl)Cl)c1` (stereo not drawn): the IC50 is 11.5 µM (active) in assay [7] and > 100 µM (inactive) in [6].

With `O=C(CO/N=C/c1ccccc1OC(F)F)NCc1cccs1`, on Troponin, cardiac muscle, the EC50 was > 71.5 µM (inactive).

For `COc1ccc(C(=O)Nc2cc(C(C)=O)c(/C=C/N(C)C)oc2=O)cc1`, the EC50 was 54.1 µM (active) in assay [8]; 54.8 µM (active) in assay [9]; 10.5 µM (inactive) at Troponin, cardiac muscle; 6.69 µM (active) in assay [10]. In addition, the AC50 was 10 µM (inconclusive) at Cytochrome P450 2C19, 15.8 µM (inconclusive) at Cytochrome P450 1A2 and 22.4 µM (inconclusive) on Cytochrome P450 2C9.

`COC(=O)C1=C(C)N(Cc2ccccc2)C(NCc2ccc(OC)cc2)=N[C@H]1c1ccccc1`: the half-maximal inhibitory concentration (IC50) in assay [1] was 5.01 µM (active); in [2], 10.8 µM (active).

In the case of `Sc1nc(-c2ccc(Cl)cc2Cl)n[nH]1`, the IC50 in [5] was > 100 µM (not active); in assay [7], > 100 µM (inactive); in assay [6], > 100 µM (inactive).

Consider `O=C1c2cccc3cccc(c23)C(=O)N1CCN1CCN(CC(O)COCc2ccc(Cl)cc2)CC1` (stereo not drawn), for which the figures for the IC50 (at Bcl-2-related protein A1; in assay [3]; in assay [4]) were > 20 µM (inactive), 2.89 µM (active) and 2.31 µM (active), respectively.

As to `O=C1C2C(C(=O)N1/N=C/c1cc([N+](=O)[O-])c(O)cc1O)C1C=CC2C12CC2` (stereo not drawn), the results for the IC50 in [1], in assay [2] and in assay [11] were 11.3 µM (active), 40.2 µM (active) and 4.9 µM (active), respectively. Also, the AC50 at Caspase-6 is 3.41 µM (active).

As to `CC1(C)CC(=O)c2c(-c3ccc(F)cc3)n[nH]c2C1`, the 50% inhibitory concentration (IC50) in [5] was > 100 µM (not active); in assay [7] it was > 100 µM (inactive); in [6] it was 5.95 µM (active).

One may read the IC50 as the midpoint of a concentration-inhibition curve. The term AC50 denotes the concentration at which the activity in the assay is half-maximal.
